Read-outs that look alike come from different tables or passages of the source.
Legend:
alphaActin1 = assay: Anti-fibrotic effects: alphaActin1 production by LX2 cells treated with TGFbeta; assay type: cell-based; conditions: 500 nM
Excerpt: (§1) Methods of culturing LX2 cells and measurements of Collagen1A1 and alphaActin1 mRNA contents are provided in Ding et al, Proc Natl Acad Sci USA 2015, 112:15713-15718

[1] = tested on: Interleukin 1beta (IL-1beta), Interleukin 6 (IL6) and TNF-alpha; assay: LPS-stimulated cytokine production in whole human blood; assay type: cell-based; conditions: 10 ng/ml LPS; for inhibition at 0.6 µM: 600 nM, 24 h, read-out: Inhibition of inflammatory cytokine production
Method: BET inhibitors were added (from 10 mM DMSO solutions) to whole human blood (anti-coagulated with heparin) during incubation for 24 h at 37° C. in the presence of 10 ng/ml Lipopolysaccharide (LPS). Final DMSO concentration was below 0.01%. Cytokines production with 0.01% DMSO alone in the absence of LPS were below detection level.

collagen1A1 = assay: Anti-fibrotic effects: collagen1A1 production by LX2 cells treated with TGFbeta; assay type: cell-based; conditions: 500 nM
Excerpt: as §1

KMS-12-BM = assay: Inhibition of proliferation (Alamar Blue cell viability), KMS-12-BM; assay type: cell-based; conditions: Homo sapiens, Multiple myeloma, 72 h, read-out: Inhibition of cell growth, IC50
Method: (§2) A semi-log dilution was performed in 100% DMSO. Cells were cultured in DMEM containing 10% FCS and Penicillin/Streptomycin. For the assays, cells were seeded in 150 μL medium on a 96-well cell culture plate and incubated at 37° C. overnight before the compound was added. […] A day after cell seeding, 10 μL of prediluted compound was added to the cells (1:16 dilution). Treatment of cells with 0.1% DMSO and Staurosporine (1.0E-05 M) served as High control (100% viability) and Low control (0% viability), respectively
(§3) A day after cell seeding, the test compound was added to the medium to reach the final concentration and incubated for 72 h at 37° C. at 5% CO2 in air dependent on the medium. Subsequently 15 μL Alamar Blue reagent was added and fluorescence at 590 nm was measured after 3-5 h incubation at 37° C., 5% CO2 using a fluorometer.
(§4) Raw data were converted into percent cell viability relative to the high control (0.1% DMSO) and low control (1E-05M Staurosporine), which were set to 100% and 0%, respectively.

BRD4 = BRD4 (Homo sapiens, UniProt O60885); assay: AlphaScreen assay, Bromodomain 4 inhibition; assay type: binding
Method: AlphaScreen assays were performed as described by Philpott et al Mol Biosyst. […] YSGRGK(Ac)GGK(Ac)GLGK(Ac)GGAK(Ac)RHRK (Biotin) peptide was used in the assays. Buffer conditions used in all experiments were 25 mM HEPES, pH 7.4, 100 mM NaCl, 0.1% BSA, supplemented with 0.05% CHAPS.

CCL2 = assay: Production of the chemokine CCL2 by cultured human astrocytes (CCL2 mRNA); assay type: cell-based; conditions: 250 nM, 24 h
Method: CCL2 mRNA content of control astrocytes, astrocytes incubated with 10 ug/ml Tumor Necrosis Factor alpha (TNFalpha) and 10 ug/ml Interferon alpha (IFNalpha) (T/I), astrocytes treated with 250 nM of “Compound 38” (referred to as “C4” in FIG. 2) and astrocytes which are pretreated with “Compound 38” (C4) for 1 hour before stimulation with T/I. Incubation period 24 h. Details on astrocyte culture and quantification of CCL2 mRNA are provided in Mizee et al. Acta Neuropathol (2014) 128:691-703. […] Co-addition of 250 nM of “Compound 38” decreased CCL2 production by 80% both in the absence and presence of TNFalpha/Interferon as shown in FIG. 2.

OPM-2 = assay: Inhibition of proliferation (Alamar Blue cell viability), OPM-2; assay type: cell-based; conditions: Homo sapiens; Multiple myeloma, OPM-2, 72 h; read-out: Inhibition of cell growth, IC50
Method: as §2, §3, §4

KG1 = assay: Inhibition of proliferation (Alamar Blue cell viability), KG1; assay type: cell-based; conditions: Homo sapiens, KG-1; AML, KG1, 72 h; read-out: Inhibition of cell growth, IC50
Method: as §2, §3, §4

HL-60 = assay: Inhibition of proliferation (Alamar Blue cell viability), HL-60; assay type: cell-based; conditions: Homo sapiens; AML, HL-60, 72 h; read-out: Inhibition of cell growth, IC50
Method: as §2, §3, §4

LP-1 = assay: Inhibition of proliferation (Alamar Blue cell viability), LP-1; assay type: cell-based; conditions: Homo sapiens; Multiple myeloma, LP-1, 72 h; read-out: Inhibition of cell growth, IC50
Method: as §2, §3, §4

[2] = AlphaScreen, acetylated histone peptide, read-out: Potency as inhibitor of BRD4, IC-50

Structure (SMILES)	Reduction of alphaActin1 production (alphaActin1)	inhibition at 0.6 µM [1] [%]	Reduction of collagen1A1 production (collagen1A1)	IC50 (BRD4; [2]) [nM]	further results
Cc1sc2c(c1C)C(c1ccc(Cl)cc1)=N[C@@H](CC(=O)OC(C)(C)C)c1nnc(C)n1-2 [(+)JQ1, reference compound]	reduced to an equal extent	~30	reduced to an equal extent	–	–
Cc1sc2c(c1C)C(c1ccc(Cl)cc1)=NN(C)c1nnc(C)n1-2 [Compound 38, 4-(4-chlorophenyl)-2,3,6,9-tetramethyl-6H-thieno[2,3-e][1,2,4]triazolo[3,4-c][1,2,4]triazepine]	–	–	–	–	IC50 (KMS-12-BM): 270 nM; IC50 (BRD4): 150 nM; Decrease of CCL2 production (CCL2; absence of TNFalpha/Interferon): 80%; Decrease of CCL2 production (CCL2; presence of TNFalpha/Interferon): 80%; IC50 (OPM-2): 260 nM; IC50 (KG1): 810 nM; IC50 (HL-60): 810 nM; IC50 (LP-1): 360 nM
CCOC(=O)CN1N=C(c2ccc(Cl)cc2)c2c(sc(C)c2C)-n2c(C)nnc21 [Compound 41, Ethyl 2-(4-(4-chlorophenyl)-2,3,9-trimethyl-6H-thieno[2,3-e][1,2,4]triazolo[3,4-c][1,2,4]triazepin-6-yl)acetate]	reduced to an equal extent	> 80	reduced to an equal extent	11	IC50 ([1]; 24 h at 37° C., read-out: Inhibition of production of IL-1beta, IL6 and TNF-alpha, IC50s): 6 to 60 nM
Cc1sc2c(c1C)C(c1ccc(Cl)cc1)=NN(CC(=O)O)c1nnc(C)n1-2.Cl [Compound 42, 2-(4-(4-chlorophenyl)-2,3,9-trimethyl-6H-thieno[2,3-e][1,2,4]triazolo[3,4-c][1,2,4]triazepin-6-yl)acetic acid hydrochloride]	less inhibition	–	less inhibition	290	–
Cc1sc2c(c1C)C(c1ccc(Cl)cc1)=NN(CC(=O)OC(C)(C)C)c1nnc(C)n1-2 [Compound 43, tert-butyl 2-(4-(4-chlorophenyl)-2,3,9-trimethyl-6H-thieno[2,3-e][1,2,4]triazolo[3,4-c][1,2,4]triazepin-6-yl)acetate]	less inhibition	–	less inhibition	100	–

— patent US11708374B2, “Preparation of condensed triazepine derivatives and their use as BET inhibitors” (DYBLY AG, priority 2018, dated 2023)
